Source: US10752640B2, “Compounds active towards bromodomains” (NUEVOLUTION A/S, priority 2014, dated 2020)

Target: BRD4 protein (Homo sapiens, UniProt O60885)
Test: FRET assay, half maximal inhibitory concentration (IC50)
Assay type: binding
Conditions: BRD4 protein 50 nM, Biotin-H4KAc4 peptide 12.5 nM; List of Classification
In short: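 HTRF: 50 nM BRD4 preincubated 30 min at room temperature with compound (10-fold series from 50 μM in 12.5% DMSO) in 50 mM HEPES pH 7.5, 100 mM NaCl, 0.05% CHAPS. Then 12.5 nM biotin-H4KAc4 peptide for 30 min, and anti-GST XL665 (10 nM) plus streptavidin cryptate (2.4 nM) with 0.4 M KF for 1 h. IC50 by variable-slope fit.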

Cc1cc(O)nc2ccc(NC(=O)c3cc(N)ccc3N3CCOCC3)cc12 [Compound-54, 5-amino-N-(2-hydroxy-4-methyl-6-quinolyl)-2-morpholino-benzamide]
IC50: 500 to 1000 nM

Cc1cc(O)nc2ccc(NC(=O)c3cc(NCC(N)=O)ccc3N3CCOCC3)cc12 [Compound-55, 5-[(2-amino-2-oxo-ethyl)amino]-N-(2-hydroxy-4-methyl-6-quinolyl)-2-morpholino-benzamide]
IC50: 200 to 500 nM

Cc1cc(O)nc2ccc(NC(=O)c3cc(S(=O)(=O)N4CCOCC4)ccc3N3CCOCC3)cc12 [Compound-68, N-(2-hydroxy-4-methyl-6-quinolyl)-2-morpholino-5-morpholinosulfonyl-benzamide]
IC50: < 200 nM

COc1ccccc1C(=O)Nc1ccc2nc(O)cc(C)c2c1 [Compound-69, N-(2-hydroxy-4-methyl-6-quinolyl)-2-methoxy-benzamide]
IC50: > 10000 nM

Cc1cc(O)nc2ccc(NC(=O)c3cc(S(N)(=O)=O)ccc3N3CCOCC3)cc12 [Compound-70, N-(2-hydroxy-4-methyl-6-quinolyl)-2-morpholino-5-sulfamoyl-benzamide]
IC50: < 200 nM

Cc1cc(O)nc2ccc(NC(=O)c3cc(S(=O)(=O)N(C)C)ccc3N3CCCC3)cc12 [Compound-72, 5-(dimethylsulfamoyl)-N-(2-hydroxy-4-methyl-6-quinolyl)-2-pyrrolidin-1-yl-benzamide]
IC50: < 200 nM

Cc1cc(O)nc2ccc(NC(=O)c3cc(S(=O)(=O)N(C)C)ccc3N3CCOCC3)cc12 [Compound-73, 5-(dimethylsulfamoyl)-N-(2-hydroxy-4-methyl-6-quinolyl)-2-morpholino-benzamide]
IC50: < 200 nM

Cc1cc(O)nc2ccc(NC(=O)c3cc(S(=O)(=O)N4CCOCC4)ccc3N3CCCC3)cc12 [Compound-74, N-(2-hydroxy-4-methyl-6-quinolyl)-5-morpholinosulfonyl-2-pyrrolidin-1-yl-benzamide]
IC50: < 200 nM

Cc1cc(O)nc2ccc(NS(=O)(=O)c3cc([N+](=O)[O-])ccc3N3CCOCC3)cc12 [Compound-76, N-(2-hydroxy-4-methyl-6-quinolyl)-2-morpholino-5-nitro-benzenesulfonamide]
IC50: 1000 to 10000 nM

Cc1cc(O)nc2ccc(NS(=O)(=O)c3cc(N)ccc3N3CCOCC3)cc12 [Compound-77, 5-amino-N-(2-hydroxy-4-methyl-6-quinolyl)-2-morpholino-benzenesulfonamide]
IC50: > 10000 nM

CN(C)S(=O)(=O)c1ccc(N2CCOCC2)c(C(=O)Nc2ccc3[nH]c(=O)cc(C(F)(F)F)c3c2)c1 [Compound-79, 5-(dimethylsulfamoyl)-2-morpholino-N-[2-oxo-4-(trifluoromethyl)-1H-quinolin-6-yl]benzamide]
IC50: 1000 to 10000 nM

Cc1cc(O)nc2ccc(NS(=O)(=O)c3cc(S(N)(=O)=O)ccc3N3CCOCC3)cc12 [Compound-80, N3-(2-hydroxy-4-methyl-6-quinolyl)-4-morpholino-benzene-1,3-disulfonamide]
IC50: > 10000 nM

Cc1cc(O)nc2ccc(NC(=O)c3cc([N+](=O)[O-])ccc3N3CCCC3)cc12 [Compound-82, N-(2-hydroxy-4-methyl-6-quinolyl)-5-nitro-2-pyrrolidin-1-yl-benzamide]
IC50: < 200 nM

Cc1cc(O)nc2ccc(NC(=O)c3cc4c(ccn4CC4NCCO4)cc3N3CCCC3)cc12 (stereo not shown) [Compound-84, N-(2-hydroxy-4-methyl-6-quinolyl)-1-(oxazolidin-2-ylmethyl)-5-pyrrolidin-1-yl-indole-6-carboxamide]
IC50: < 200 nM

Cc1cc(O)nc2ccc(NC(=O)c3cc4[nH]cc(CN(C)C)c4cc3N3CCCC3)cc12 [Compound-85, 3-(dimethylaminomethyl)-N-(2-hydroxy-4-methyl-6-quinolyl)-5-pyrrolidin-1-yl-1H-indole-6-carboxamide]
IC50: < 200 nM

Cc1cc(O)nc2ccc(NC(=O)c3cc4c(ccn4CC(N)=O)cc3N3CCCC3)cc12 [Compound-86, 1-(2-amino-2-oxo-ethyl)-N-(2-hydroxy-4-methyl-6-quinolyl)-5-pyrrolidin-1-yl-indole-6-carboxamide]
IC50: < 200 nM

Cc1cc(O)nc2ccc(NC(=O)c3cc(CN4CCOCC4)cnc3N3CCCC3)cc12 [Compound-87, N-(2-hydroxy-4-methyl-6-quinolyl)-5-(morpholinomethyl)-2-pyrrolidin-1-yl-pyridine-3-carboxamide]
IC50: < 200 nM

Cc1cc(O)nc2ccc(NC(=O)c3cc(CN4CCOCC4)cnc3N3CCC(F)C3)cc12 (stereo not shown) [Compound-88, 2-(3-fluoropyrrolidin-1-yl)-N-(2-hydroxy-4-methyl-6-quinolyl)-5-(morpholinomethyl)pyridine-3-carboxamide]
IC50: < 200 nM

Cc1cc(O)nc2ccc(NC(=O)c3cc(CN4CCOCC4)cnc3N3CCC(O)C3)cc12 (stereo not shown) [Compound-89, N-(2-hydroxy-4-methyl-6-quinolyl)-2-(3-hydroxypyrrolidin-1-yl)-5-(morpholinomethyl)pyridine-3-carboxamide]
IC50: < 200 nM

Cc1cc(O)nc2ccc(NC(=O)c3cc(CN4CCOCC4)cnc3N3CCOCC3)cc12 [Compound-90, N-(2-hydroxy-4-methyl-6-quinolyl)-2-morpholino-5-(morpholinomethyl)pyridine-3-carboxamide]
IC50: < 200 nM

O=C(Nc1ccc2nc(O)cc(Cl)c2c1)c1cc(CN2CCOCC2)cnc1N1CCOCC1 [Compound-91, N-(4-chloro-2-hydroxy-6-quinolyl)-2-morpholino-5-(morpholinomethyl)pyridine-3-carboxamide]
IC50: < 200 nM

Cc1cc(=O)nc2ccc(NC(=O)c3cc(CN4CCOCC4)cnc3N3CCCC3)cn12 [Compound-92, N-(4-methyl-2-oxo-pyrido[1,2-a]pyrimidin-7-yl)-5-(morpholinomethyl)-2-pyrrolidin-1-yl-pyridine-3-carboxamide]
IC50: > 10000 nM

Cc1cc(O)nc2ccc(NC(=O)c3cc(CN4CCOCC4)cnc3N3CCCC3)nc12 [Compound-93, N-(8-methyl-6-oxo-5H-1,5-naphthyridin-2-yl)-5-(morpholinomethyl)-2-pyrrolidin-1-yl-pyridine-3-carboxamide]
IC50: 1000 to 10000 nM

Cc1cc(=O)[nH]c2ccc(NC(=O)c3cc(S(=O)(=O)N4CCOCC4)ccc3N3CCCC3)nc12 [Compound-94, N-(8-methyl-6-oxo-5H-1,5-naphthyridin-2-yl)-5-morpholinosulfonyl-2-pyrrolidin-1-yl-benzamide]
IC50: > 10000 nM

Cc1cc(O)nc2ccc(NC(=O)c3ccncc3N3CCCC3)cc12 [Compound-95, N-(2-hydroxy-4-methyl-6-quinolyl)-3-pyrrolidin-1-yl-pyridine-4-carboxamide]
IC50: < 200 nM

Cc1cc(O)nc2ccc(NC(=O)c3cccnc3N3CCCC3)cc12 [Compound-96, N-(2-hydroxy-4-methyl-6-quinolyl)-2-pyrrolidin-1-yl-pyridine-3-carboxamide]
IC50: < 200 nM

Cc1cc(O)nc2ccc(NC(=O)c3cccnc3N3CCCC3CN(C)C)cc12 (stereo not shown) [Compound-97, 2-[2-(dimethylaminomethyl)pyrrolidin-1-yl]-N-(2-hydroxy-4-methyl-6-quinolyl)pyridine-3-carboxamide]
IC50: < 200 nM

COc1cc(O)nc2ccc(NC(=O)c3cc(CN4CCN(C)CC4)ccc3N3CCCC3)cc12 [Compound-98, N-(2-hydroxy-4-methoxy-6-quinolyl)-5-[(4-methylpiperazin-1-yl)methyl]-2-pyrrolidin-1-yl-benzamide]
IC50: < 200 nM

O=C1CCc2cc(NC(=O)c3cc(S(=O)(=O)N4CCOCC4)ccc3N3CCCC3)ccc2N1 [Compound-100, 5-morpholinosulfonyl-N-(2-oxo-3,4-dihydro-1H-quinolin-6-yl)-2-pyrrolidin-1-yl-benzamide]
IC50: 500 to 1000 nM

CC1CC(=O)Nc2ccc(NC(=O)c3cc(CN4CCOCC4)ccc3N3CCCC3)cc21 (stereo not shown) [Compound-101, N-(4-methyl-2-oxo-3,4-dihydro-1H-quinolin-6-yl)-5-(morpholinomethyl)-2-pyrrolidin-1-yl-benzamide]
IC50: < 200 nM

CC1CC(=O)Nc2ccc(NC(=O)c3cc(S(=O)(=O)N(C)C)ccc3N3CCCC3)cc21 (stereo not shown) [Compound-102, 5-(dimethylsulfamoyl)-N-(4-methyl-2-oxo-3,4-dihydro-1H-quinolin-6-yl)-2-pyrrolidin-1-yl-benzamide]
IC50: < 200 nM

CC1(C)CC(=O)Nc2ccc(NC(=O)c3cc(CN4CCOCC4)ccc3N3CCCC3)cc21 [Compound-103, N-(4,4-dimethyl-2-oxo-1,3-dihydroquinolin-6-yl)-5-(morpholinomethyl)-2-pyrrolidin-1-yl-benzamide]
IC50: 200 to 500 nM

CN(C)S(=O)(=O)c1ccc(N2CCCC2)c(C(=O)Nc2ccc3c(c2)C(C)(C)CC(=O)N3)c1 [Compound-104, N-(4,4-dimethyl-2-oxo-1,3-dihydroquinolin-6-yl)-5-(dimethylsulfamoyl)-2-pyrrolidin-1-yl-benzamide]
IC50: < 200 nM

Cc1cc(O)nc2ccc(NC(=O)c3cc(N)ccc3-n3cccn3)cc12 [Compound-105, 5-amino-N-(2-hydroxy-4-methyl-6-quinolyl)-2-pyrazol-1-yl-benzamide]
IC50: 500 to 1000 nM

CN(C)S(=O)(=O)c1ccc(N2CCCC2)c(C(=O)Nc2cc(F)c3c(c2)C(C)(C)CC(=O)N3)c1 [Compound-106, 5-(dimethylsulfamoyl)-N-(8-fluoro-4,4-dimethyl-2-oxo-1,3-dihydroquinolin-6-yl)-2-pyrrolidin-1-yl-benzamide]
IC50: < 200 nM

COc1cc(NC(=O)c2cc(S(=O)(=O)N(C)C)ccc2N2CCCC2)cc2c(C)cc(O)nc12 [Compound-108, 5-(dimethylsulfamoyl)-N-(2-hydroxy-8-methoxy-4-methyl-6-quinolyl)-2-pyrrolidin-1-yl-benzamide]
IC50: < 200 nM

Cc1cc(O)nc2ccc(NC(=O)c3cc(C(F)(F)F)ccc3N3CCCC3)cc12 [Compound-109, N-(2-hydroxy-4-methyl-6-quinolyl)-2-pyrrolidin-1-yl-5-(trifluoromethyl)benzamide]
IC50: < 200 nM
